Measurements from patent publication US9018244B2, “Benzopyran compounds, compositions and uses thereof” (Olema Pharmaceuticals, Inc., priority 2011, dated 2015).

Columns and labels:
[1] = daily oral dose of 40 mg in women; cited from earlier work
[2] = test system: E2-stimulated AP activity in ECC-1 cells; test: Inhibition of E2-stimulated AP activity in ECC-1 cells (antagonist mode); type: cell-based, human; conditions: in the presence of 500 pM E2
From the text: FIG. 2. Alkaline phosphatase (AP) activity in ECC-1 cells correlates with the uterine wet weight of ovariectomized rats, as reported previously in Scafonas, et al. (*; Scafonas et al. “Agonist-like SERM effects on ER alpha-mediated repression of MMPI promoter activity predict in vivo effects on bone and uterus. J Steroid Biochem Mol. Biol. 2008 110(3-5):197-206) and Labrie, et al. (†; Labrie et al. “The combination of a novel selective estrogen receptor modulator with an estrogen protects the mammary gland and uterus in a rodent model: the future of postmenopausal women's health?” Endocrinology. 2003 144(11):4700-6). ECC-1 cells were treated with 500 pM 17β-estradiol (E2) or 1-5 nM anti-estrogens in hormone-depleted medium for 3 days. Note that the racemic mixture of acolbifene, EM-343, was used in the in vitro AP assay. AP activity was measured by incubating a chromogenic AP substrate, p-nitrophenyl phosphate, at 40° C. for 40 minutes followed by measuring the absorbance at 405 nm. Results were from a single representative experiment and reported as the mean percent induction relative to E2 from triplicate treatments, with error bars representing SEM.
FIG. 6. […] A) Comparison of inhibition of E2-stimulated AP activity of various benzopyran compounds (right) compared to published reference compounds (left). ECC-1 cells were treated with 100 nM anti-estrogens in the presence of 500 pM E2 and AP activity was measured as described in FIG. 2. Note that OP-1038 was statistically different from EM-343 and Gauthier compound Ia (p<0.0001 (exact p values stated in graph), calculated using Student's t-test). Results were from a single representative experiment and reported as the mean percent induction relative to E2 from triplicate treatments, with error bars representing SEM. […] IC50's were calculated using the least squares fit method. *Aragon Compound 28 was statistically different from equivalent dose of OP-1038 (p≦0.01, calculated using Student's t-test). […]
Method for performing the alkaline phosphatase (AP) assay. […] Absorbance was read at 405 nm using a plate spectophotometer. […]

[3] = test system: E2-stimulated estrogen response element (ERE)-regulated reporter gene activity; test: ERE-tk109-Luc reporter gene assay in MCF-7 cells; type: cell-based, human; conditions: 100 pM E2, 18-22 hours
Experimental: (§1) FIG. 10. […] A) OP-1074 had similar potency to model anti-estrogens in the ERE reporter gene assay. MCF-7 cells were transiently transfected with ERE-tk109-Luc and treated with anti-estrogens in hormone-depleted medium in the presence of 100 pM E2 for 22 hours. Results were from a single representative experiment and reported as the mean percent induction relative to E2 from triplicate treatments, with error bars representing SEM. […] Results were from a single representative experiment and reported as the mean percent induction relative to E2 from triplicate treatments, with error bars representing SEM. IC50's were calculated using the least squares fit method.
Compounds of invention are tested for their inhibitory activity of estrogen according to the assay methods described in Hodges-Gallagher, L., Valentine, C. V., El Bader, S. and Kushner, P. J. (2007) “Histone Deacetylase Inhibitors Enhance the Efficacy of Hormonal Therapy Agents on Breast Cancer Cells and Blocks Anti-estrogen-Driven Uterine Cell Proliferation” Breast Cancer Res Treat, November; 105(3):297-309. Specifically, an estrogen-responsive reporter gene (ERE-tk109-Luc) was transiently transfected into MCF-7 cells and treated with anti-estrogens in triplicate in the presence of 100 pM 17β-estradiol (E2) for 18-22 hours. Luciferase activity was normalized to activity of E2 alone and IC50's were calculated using the least squares fit method. This method is also described in legend for FIG. 10.

[4] = test system: human MCF-7 breast cancer cells; test: E2-stimulated proliferation of MCF-7 breast cancer cells; type: cell-based; conditions: MCF-7 cells, 100 pM E2, 6-8 days
Experimental: as §1, with “11.” for “10.”, “inhibiting E2-stimulated proliferation of breast cells in vitro.” for “the ERE reporter gene assay.”, “were” for “were transiently transfected with ERE-tk109-Luc and”, “medium for 6-8 days” for “medium”, “E2. Proliferation was measured using Cyquant fluorescent DNA-binding dye (Invitrogen, Grand Island, N.Y.).” for “E2 for 22 hours.”
Proliferation in MCF-7 was measured using a fluorescent DNA binding dye 6-8 days after treatment in triplicate with anti-estrogens in the presence of 100 pM E2 and as described in the legend to, and depicted in FIG. 11.

[5] = molecular target: T1, estrogen receptor alpha (ERα) (Homo sapiens, UniProt P03372); test: ERα expression by immunoblot after anti-estrogen treatment; type: cell-based; conditions: 100 nM anti-estrogen, 22-24 hours, serum-free medium; MCF-7 breast cells and ECC-1 endometrial cells
T1 construct: endogenous in cells
T1 sequence (P03372 1-595): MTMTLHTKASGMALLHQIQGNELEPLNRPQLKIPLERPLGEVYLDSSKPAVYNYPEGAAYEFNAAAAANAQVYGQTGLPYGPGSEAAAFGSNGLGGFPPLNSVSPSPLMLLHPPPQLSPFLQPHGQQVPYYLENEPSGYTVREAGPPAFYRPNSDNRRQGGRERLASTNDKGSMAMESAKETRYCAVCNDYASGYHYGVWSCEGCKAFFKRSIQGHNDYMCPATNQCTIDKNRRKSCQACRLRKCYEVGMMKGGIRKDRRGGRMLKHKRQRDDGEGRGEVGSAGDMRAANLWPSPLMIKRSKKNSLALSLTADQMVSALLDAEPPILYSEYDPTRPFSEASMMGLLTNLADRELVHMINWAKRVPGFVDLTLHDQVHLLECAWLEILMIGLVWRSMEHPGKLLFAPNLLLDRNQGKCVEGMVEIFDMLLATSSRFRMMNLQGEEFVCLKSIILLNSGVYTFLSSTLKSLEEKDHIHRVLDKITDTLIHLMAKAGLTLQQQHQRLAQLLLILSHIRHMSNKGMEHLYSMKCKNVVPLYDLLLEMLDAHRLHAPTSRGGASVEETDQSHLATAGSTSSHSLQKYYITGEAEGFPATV
Experimental: FIG. 12. […] A) ERα levels in breast cells after treatment with OP-1074 compared to treatment with model anti-estrogens. MCF-7 cells were treated with 100 nM anti-estrogen for 24 hours in serum-free medium and protein extracts immunoblotted with an antibody to ERα (D12, Santa Cruz Biotechnology, Santa Cruz, Calif.). Image is from a single representative experiment and number on top denotes the mean percent ERα expression relative to vehicle from quadruplicate treatments. B) OP-1038 induces degradation of ERα in both MCF-7 breast cells and ECC-1 endometrial cells.
ERα expression was detected in MCF-7 cell lysates treated with 100 nM anti-estrogens in serum-free medium for 22-24 hours and immunoblotted with an antibody specific to ERα as described in the legend to, and depicted in FIG. 12.

[6] = test system: rodent uterus, human uterine cells; conditions: cited from earlier work

Compound: CC1=C(c2ccc(OC(=O)C(C)(C)C)cc2)[C@H](c2ccc(OCCN3CCCCC3)cc2)Oc2cc(OC(=O)C(C)(C)C)ccc21 [EM800]
- Mean drug exposure of circulating acolbifene [1]: 15 ng/mL

Compound: CC1=C(c2ccc(O)cc2)[C@H](c2ccc(OCCN3CCCCC3)cc2)Oc2cc(O)ccc21 [EM-652, (S)-3-(4-hydroxyphenyl)-4-methyl-2-(4-(2-(piperidin-1-yl)ethoxy)phenyl)-2H-chromen-7-ol]
- Mean drug exposure of circulating acolbifene [1]: 8.3 ng/mL

Compound: CC1=C(c2ccc(O)cc2)[C@@H](c2ccc(OCCN3CC[C@@H](C)C3)cc2)Oc2cc(O)ccc21 [OP-1075, (2R)-3-(4-hydroxyphenyl)-4-methyl-2-(4-{2-[(3R)-3-methylpyrrolidin-1-yl]ethoxy}phenyl)-2H-chromen-7-ol]
- Inhibition of E2-stimulated AP activity [2]: reduced activity
- Antagonism of E2-stimulated ERE-regulated reporter gene activity [3]: reduced activity
- Antagonism of E2-stimulated proliferation [4]: reduced activity
- Degradation of ERα [5]: degrade the receptor

Compound: CC12CCC3c4ccc(O)cc4CC(CCCCCCCCC[S+]([O-])CCCC(F)(F)C(F)(F)F)C3C1CCC2O (stereo not shown) [fulvestrant]
- Residual estrogen-like action relative to estradiol [6]: almost unmeasurable
